Assays:
Assay type in all cases: in vivo
[1] = system: fall armyworm larvae (Spodoptera frugiperda); test: Spodoptera frugiperda spray test (SPODFR); details: in Zea mays, 168 h
Protocol: Spodoptera frugiperda—Spray Test
Solvent: 78.0 parts by weight acetone • 1.5 parts by weight dimethylformamide
(§1) Emulsifier: alkylarylpolyglycol ether
(§2) To produce a suitable preparation of active compound, 1 part by weight of active compound is mixed with the stated amount of solvents and is diluted with water, containing an emulsifier concentration of 1000 ppm, to the desired concentration. Further test concentrations are prepared by dilution with emulsifier containing water.
Maize (Zea mays) leaf sections are sprayed with a preparation of the active ingredient of the desired concentration. Once dry, the leaf sections are infested with fall armyworm larvae (Spodoptera frugiperda).
After 7 days mortality in % is determined. 100% means all caterpillars have been killed and 0% means none of the caterpillars have been killed.
Spodoptera frugiperda—Spray Test (SPODFR
After the specified period of time, mortality in % is determined. 100% means all caterpillars have been killed and 0% means none of the caterpillars have been killed.

[2] = system: adult brown dog ticks (Rhipicephalus sanguineus); test: Rhipicephalus sanguineus in-vitro contact test, adult brown dog ticks; details: 1 μg/cm^2 (=100 g/ha), after 48 hours; for pest or weed control at 1 µg/cm2, 100 g/ha: Rhipicephalus sanguineus, read-out: efficacy (ticks dead or moribund)
Protocol: Rhipicephalus sanguineus—In-Vitro Contact Tests with Adult Brown Dog Ticks
(§3) 9 mg compound is solved in 1 mL acetone and diluted with acetone to the desired concentration. 250 μL of the test solution is filled in 25 mL glass test tubes and homogeneously distributed on the inner walls by rotation and tilting on a shaking device (2 h at 30 rpm). With a compound concentration of 900 ppm, an inner surface of 44.7 cm^2 and a homogeneous distribution, a dose of 5 μg/cm^2 is achieved.
(§4) After the solvent has evaporated, each test tube is filled with 5-10 adult brown dog ticks (Rhipicephalus sanguineus), closed with a perforated lid and incubated in a lying position at room temperature and relative humidity. After 48 hours efficacy is determined. The ticks are patted on the ground of the tubes and are incubated on a heating plate at 45-50° C. for at most 5 minutes. Immotile or uncoordinated moving ticks, which are not able to escape the heat by climbing upwards, are marked as dead or moribund.
An efficacy of 100% means all ticks are dead or moribund; 0% means no ticks are dead or moribund.

[3] = system: Rhipicephalus (Boophilus) microplus larvae (strain Parkhurst, resistant against synthetic pyrethroids); test: Rhipicephalus (Boophilus) microplus in-vitro contact test, larval cattle tick; details: 1 μg/cm^2 (=100 g/ha), after 48 hours; for pest or weed control at 1 µg/cm2: Rhipicephalus microplus, read-out: efficacy (larvae dead or moribund)
Protocol: Rhipicephalus (Boophilus) Microplus—In-Vitro Contact Tests Larval Cattle Tick (Strain Parkhurst, Resistant Against Synthetic Pyrethroids
as §3
After the solvent has evaporated, each test tube is filled with 20-50 cattle tick larvae (Rhipicephalus microplus), closed with a perforated lid and incubated in a horizontal position at 85% relative humidity and 27° C. in an incubator. After 48 hours efficacy is determined. The larvae are patted on the ground of the tubes and negative geotactic behavior is recorded.

[4] = system: larvae of the banded cucumber beetle (Diabrotica balteata); test: Diabrotica balteata spray test; details: 100 g/ha (=32 μg/well), wheat seeds, after 7 days
Protocol: Diabrotica balteata—Spray Test
Solvent: 78.0 parts by weight of acetone • • 1.5 parts by weight of dimethylformamide
as §1
as §2, with “solvent,” for “solvents”, “and the concentrate” for “and”
Soaked wheat seeds (Triticum aestivum) are placed in a multiple well plate filled with agar and some water and are incubated for 1 day to germinate (5 seeds per well). The germinated wheat seeds are sprayed with a test solution containing the desired concentration of the active ingredient. Afterwards each unit is infected with 10-20 larvae of the banded cucumber beetle (Diabrotica balteata).
After 7 days efficacy in % is determined. 100% means all the seedlings have grown up like in the untreated, uninfected control; 0% means none of the seedlings have grown.

[5] = system: adult cat fleas (Ctenocephalides felis); test: Ctenocephalides felis in-vitro contact test, adult cat flea; details: 1 μg/cm^2 (=100 g/ha), after 48 hours
Protocol: Ctenocephalides Felis—In-Vitro Contact Tests Adult Cat Flea
as §3
as §4, with “cat fleas (Ctenocephalides felis),” for “brown dog ticks (Rhipicephalus sanguineus),”, “fleas” for “ticks”, “fleas,” for “ticks,”
An efficacy of 100% means all fleas are dead or moribund; 0% means no fleas are dead or moribund.

SMILES	efficacy (seedlings grown) [4] [%]	efficacy (larvae dead or moribund) [3] [%]	other results
CCNC(=O)c1cnc(-n2nc(C)nc2[C@H](C)NC(=O)c2cc(C(F)(F)F)cc(C(F)(F)F)c2)cn1 [Example I-013]	–	–	mortality at 100 g/ha [1]: 100%; pest or weed control at 1 µg/cm2, 100 g/ha [2]: 100%; pest or weed control at 1 µg/cm2 [3]: 100%
C[C@H](NC(=O)c1cc(OC(F)(F)F)cc(OC(F)(F)F)c1)c1ncnn1-c1cnc(C(=O)NC2CC2)cn1 [Example I-024]	100	100	efficacy (ticks dead or moribund) [2]: 100%
C[C@H](NC(=O)c1cc(OC(F)(F)F)cc(OC(F)(F)F)c1)c1ncnn1-c1cnc(C(=O)N(C)C)cn1 [Example I-025]	100	100	efficacy (ticks dead or moribund) [2]: 100%; efficacy (fleas dead or moribund) [5]: 100%
C[C@H](NC(=O)c1cc(OC(F)(F)F)cc(OC(F)(F)F)c1)c1nc(C2CC2)nn1-c1cnc(C(=O)N(C)C)cn1 [Example I-027]	–	–	mortality at 100 g/ha [1]: 83%; pest or weed control at 1 µg/cm2 [3]: 100%
C[C@H](NC(=O)c1cc(OC(F)(F)F)cc(OC(F)(F)F)c1)c1ncnn1-c1cnc(C(N)=O)cn1 [Example I-029]	–	–	mortality at 100 g/ha [1]: 100%; pest or weed control at 1 µg/cm2, 100 g/ha [2]: 100%; pest or weed control at 1 µg/cm2 ([5]; Ctenocephalides felis, read-out: efficacy (fleas dead or moribund)): 100%; pest or weed control at 1 µg/cm2 [3]: 100%
CCNC(=O)c1cnc(-n2nc(C)nc2[C@H](C)NC(=O)c2cc(OC(F)(F)F)cc(OC(F)(F)F)c2)cn1 [Example I-035]	–	–	mortality at 100 g/ha [1]: 100%; pest or weed control at 1 µg/cm2 [3]: 100%
Cc1nc([C@H](C)NC(=O)c2cc(OC(F)(F)F)cc(OC(F)(F)F)c2)n(-c2cnc(C(=O)N(C)C)cn2)n1 [Example I-037]	100	100	efficacy (ticks dead or moribund) [2]: 100%; efficacy (fleas dead or moribund) [5]: 100%
CCN(C)C(=O)c1cnc(-n2nc(C)nc2[C@H](C)NC(=O)c2cc(OC(F)(F)F)cc(OC(F)(F)F)c2)cn1 [Example I-038]	100	100	efficacy (ticks dead or moribund) [2]: 100%; efficacy (fleas dead or moribund) [5]: 100%
Cc1nc([C@H](C)NC(=O)c2cc(OC(F)(F)F)cc(S(C)(=O)=O)c2)n(-c2cnc(C(=O)N(C)C3CC3)cn2)n1 [Example I-040]	–	100	efficacy (ticks dead or moribund) [2]: 100%; efficacy (fleas dead or moribund) [5]: 100%
CNC(=O)c1cnc(-n2nc(C)nc2[C@H](C)NC(=O)c2cc(OC(F)(F)F)cc(C3CC3)c2)cn1 [Example I-045]	100	100	efficacy (ticks dead or moribund) [2]: 100%; efficacy (fleas dead or moribund) [5]: 100%
Cc1nc([C@H](C)NC(=O)c2cc(OC(F)(F)F)cc(C3CC3)c2)n(-c2cnc(C(N)=O)cn2)n1 [Example I-046]	100	100	–
Cc1nc([C@H](C)NC(=O)c2cc(OC(F)(F)F)cc(C3(C)CC3)c2)n(-c2cnc(C(=O)N(C)C)cn2)n1 [Example I-053]	–	100	efficacy (ticks dead or moribund) [2]: 100%; efficacy (fleas dead or moribund) [5]: 80%
CNC(=O)c1cnc(-n2nc(C)nc2[C@H](C)NC(=O)c2cc(OC(F)(F)F)cc(C3(C#N)CC3)c2)cn1 [Example I-054]	100	–	–
Cc1nc([C@H](C)NC(=O)c2cc(OC(F)(F)F)cc(C3(C#N)CC3)c2)n(-c2cnc(C(=O)N(C)C)cn2)n1 [Example I-055]	–	100	efficacy (ticks dead or moribund) [2]: 80%; efficacy (fleas dead or moribund) [5]: 100%
C[C@H](NC(=O)c1cc(C(F)(F)F)cc(C(F)(F)F)c1)c1nc(C2CC2)nn1-c1cnc(C(=O)NC2CC2)cn1 [Example I-056]	100	100	–
C[C@H](NC(=O)c1cc(C(F)(F)F)cc(C(F)(F)F)c1)c1nc(C2CC2)nn1-c1cnc(C(N)=O)cn1 [Example I-057]	100	–	–

SMILES	efficacy (seedlings grown) [4] [%]	efficacy (larvae dead or moribund) [3] [%]	other results
C[C@H](NC(=O)c1cc(C(F)(F)F)cc(C(F)(F)F)c1)c1nc(C2CC2)nn1-c1cnc(C(=O)N(C)C2CC2)cn1 [Example I-058]	100	–	–
C[C@H](NC(=O)c1cc(OC(F)(F)F)cc(OC(F)(F)F)c1)c1nc(C2CC2)nn1-c1cnc(C(N)=O)cn1 [Example I-062]	100	100	–
C[C@H](NC(=O)c1cc(Br)cc(C(C)(C)F)c1)c1ncnn1-c1cnc(C(N)=O)cn1 [Example I-063]	100	–	–
C[C@H](NC(=O)c1cc(OC(F)F)cc(OC(F)F)c1)c1nc(C2CC2)nn1-c1cnc(C(N)=O)cn1 [Example I-070]	100	–	–
C[C@H](NC(=O)c1cc(Cl)cc(S(F)(F)(F)(F)F)c1)c1nc(C2CC2)nn1-c1cnc(C(N)=O)cn1 [Example I-074]	80	–	–
C[C@H](NC(=O)c1cc(Br)cc(S(F)(F)(F)(F)F)c1)c1nc(C2CC2)nn1-c1cnc(C(N)=O)cn1 [Example I-075]	100	–	–
C[C@H](NC(=O)c1cc(OC(F)(F)F)cc(S(C)(=O)=O)c1)c1ncnn1-c1cnc(C(=O)NCC#N)cn1 [Example I-086]	100	–	–
Cc1nc([C@H](C)NC(=O)c2cc(OC(F)(F)F)cc(S(C)(=O)=O)c2)n(-c2cnc(C(=O)NCC#N)cn2)n1 [Example I-087]	100	–	–
C[C@H](NC(=O)c1cc(Cl)cc(S(C)(=O)=O)c1)c1ncnn1-c1cnc(C(=O)NCC#N)cn1 [Example I-088]	100	–	–
C[C@H](NC(=O)c1cc(OC(F)F)cc(OC(F)F)c1)c1ncnn1-c1cnc(C(=O)NCC#N)cn1 [Example I-089]	100	–	–
C[C@H](NC(=O)c1cc(OC(F)(F)F)cc(S(C)(=O)=O)c1)c1nc(C2CC2)nn1-c1cnc(C(N)=O)cn1 [Example I-095]	100	–	–
C[C@H](NC(=O)c1cc(OC(F)(F)C(F)F)cc(S(C)(=O)=O)c1)c1ncnn1-c1cnc(C(=O)NCC#N)cn1 [Example I-096]	100	–	–
CNC(=O)c1cnc(-n2ncnc2[C@H](C)NC(=O)c2cc(Cl)cc(S(C)(=O)=O)c2)cn1 [Example I-098]	–	100	–
Cc1nc([C@H](C)NC(=O)c2cc(OC(F)(F)F)cc(OC(F)(F)F)c2)n(-c2cnc(C(=O)N(C)CC#N)cn2)n1 [Example I-101]	100	–	–
C[C@H](NC(=O)c1cc(OC(F)(F)F)cc(S(C)(=O)=O)c1)c1ncnn1-c1cnc(C(=O)N(C)CC#N)cn1 [Example I-104]	100	–	–
C[C@H](NC(=O)c1cc(OC(F)(F)F)cc(OC(F)(F)F)c1)c1ncnn1-c1cnc(C(=O)N(C)CC#N)cn1 [Example I-105]	100	–	–

— patent US20240368125A1, “NOVEL PYRAZINYL-TRIAZOLE COMPOUNDS AS PESTICIDES” (Bayer Aktiengesellschaft, priority 2021, published 2024)
